Active and inactive are the calls of the source. No cut-off for these calls is given here.
Experiments:
Staphylococcus aureus [1] = test: Antibacterial activity against methicillin-resistant Staphylococcus aureus isolate 1 by disk diffusion assay; type: functional
Staphylococcus aureus [2] = test: Antibacterial activity against methicillin-resistant Staphylococcus aureus isolate 2 by disk diffusion assay; type: functional
Staphylococcus aureus [3] = test: Antibacterial activity against methicillin-resistant Staphylococcus aureus isolate 3 by disk diffusion assay; type: functional
Staphylococcus aureus [4] = test: Antibacterial activity against methicillin-resistant Staphylococcus aureus isolate 4 by disk diffusion assay; type: functional
Staphylococcus aureus [5] = test: Antibacterial activity against methicillin-resistant Staphylococcus aureus isolate 5 by disk diffusion assay; type: functional
Staphylococcus aureus [6] = test: Antibacterial activity against methicillin-resistant Staphylococcus aureus isolate 6 by disk diffusion assay; type: functional
Staphylococcus aureus [7] = test: Antibacterial activity against methicillin-resistant Staphylococcus aureus isolate 7 by disk diffusion assay; type: functional
Staphylococcus aureus [8] = test: Antibacterial activity against methicillin-resistant Staphylococcus aureus isolate 8 by disk diffusion assay; type: functional
Staphylococcus aureus [9] = test: Antibacterial activity against methicillin-resistant Staphylococcus aureus isolate 9 by disk diffusion assay; type: functional
Staphylococcus aureus [10] = test: Antibacterial activity against methicillin-resistant Staphylococcus aureus NCTC 12493 after 24 hrs by checkerboard assay; type: functional; settings: NCTC 12493, 24 h
Staphylococcus aureus [11] = test: Antibacterial activity against methicillin-resistant Staphylococcus aureus isolate 1 after 24 hrs by checkerboard assay; type: functional; settings: isolate 1, 24 h
Staphylococcus aureus [12] = test: Antibacterial activity against methicillin-resistant Staphylococcus aureus isolate 2 after 24 hrs by checkerboard assay; type: functional; settings: isolate 2, 24 h
Staphylococcus aureus [13] = test: Antibacterial activity against methicillin-resistant Staphylococcus aureus isolate 3 after 24 hrs by checkerboard assay; type: functional; settings: isolate 3, 24 h
Staphylococcus aureus [14] = test: Antibacterial activity against methicillin-resistant Staphylococcus aureus isolate 4 after 24 hrs by checkerboard assay; type: functional; settings: isolate 4, 24 h
Staphylococcus aureus [15] = test: Antibacterial activity against methicillin-resistant Staphylococcus aureus isolate 5 after 24 hrs by checkerboard assay; type: functional; settings: isolate 5, 24 h
Staphylococcus aureus [16] = test: Antibacterial activity against methicillin-resistant Staphylococcus aureus isolate 6 after 24 hrs by checkerboard assay; type: functional; settings: isolate 6, 24 h
Staphylococcus aureus [17] = test: Antibacterial activity against methicillin-resistant Staphylococcus aureus isolate 7 after 24 hrs by checkerboard assay; type: functional; settings: isolate 7, 24 h
Staphylococcus aureus [18] = test: Antibacterial activity against methicillin-resistant Staphylococcus aureus isolate 8 after 24 hrs by checkerboard assay; type: functional; settings: isolate 8, 24 h
Staphylococcus aureus [19] = test: Antibacterial activity against methicillin-resistant Staphylococcus aureus isolate 9 after 24 hrs by checkerboard assay; type: functional; settings: isolate 9, 24 h
Staphylococcus aureus [20] = test: Antibacterial activity against vancomycin-intermediate resistant Staphylococcus aureus Mu50 after 24 hrs by checkerboard assay; type: functional; settings: Mu50, 24 h
Staphylococcus aureus [21] = test: Antibacterial activity against Staphylococcus aureus ATCC 25923 after 24 hrs by checkerboard assay; type: functional; settings: ATCC 25923, 24 h
Staphylococcus aureus [22] = test: Antibacterial activity against methicillin-resistant Staphylococcus aureus NCTC 12493 assessed as log reduction of bacterial growth after 9 hrs; type: functional
Staphylococcus aureus [23] = test: Antibacterial activity against methicillin-sensitive Staphylococcus aureus ATCC 25923 at 1.69 mM after 5 hrs by time kill assay; type: functional, organism-based
Staphylococcus aureus [24] = test: Antibacterial activity against methicillin-resistant Staphylococcus aureus NCTC 12493 at 1.69 mM after 5 hrs by time kill assay; type: functional, organism-based
Staphylococcus aureus [25] = test: Antibacterial activity against methicillin-sensitive Staphylococcus aureus ATCC 25923 at 1.69 mM after 4 hrs by time kill assay; type: functional, organism-based
Staphylococcus aureus [26] = test: Antibacterial activity against methicillin-resistant Staphylococcus aureus NCTC 12493 at 1.69 mM after 4 hrs by time kill assay; type: functional, organism-based
Staphylococcus aureus [27] = test: Antibacterial activity against vancomycin-intermediate resistant Staphylococcus aureus Mu50 at 1.69 mM after 4 hrs by time kill assay; type: functional, organism-based

In the case of `O=c1c(O)c(-c2ccc(O)c(O)c2)oc2cc(O)cc(O)c12` [QUERCETIN], the “inhibition zone (IZ)” value (Staphylococcus aureus [1]) is reported as 8 mm, the “inhibition zone (IZ)” value (Staphylococcus aureus [2]) is reported as “inactive” and the “inhibition zone (IZ)” value (Staphylococcus aureus [3]) is reported as “inactive”. For the same molecule, the “inhibition zone (IZ)” value (Staphylococcus aureus [4]) was “inactive”, the “inhibition zone (IZ)” value (Staphylococcus aureus [5]) was “inactive” and the “inhibition zone (IZ)” value (Staphylococcus aureus [6]) was “inactive”. The “inhibition zone (IZ)” value (Staphylococcus aureus [7]) was “inactive”, the “inhibition zone (IZ)” value (Staphylococcus aureus [8]) was “inactive” and the “inhibition zone (IZ)” value (Staphylococcus aureus [9]) was “inactive”. It also gave an MIC (Staphylococcus aureus [10]) of 850 µM, an MIC (Staphylococcus aureus [11]) of 1690 µM and an MIC (Staphylococcus aureus [12]) of 1690 µM. It also gave an MIC (Staphylococcus aureus [13]) of 1690 µM, an MIC (Staphylococcus aureus [14]) of 1690 µM and an MIC (Staphylococcus aureus [15]) of 1690 µM. The MIC (Staphylococcus aureus [16]) was 1690 µM, the MIC (Staphylococcus aureus [17]) was 1690 µM and the MIC (Staphylococcus aureus [18]) was 1690 µM. The MIC (Staphylococcus aureus [19]) was 1690 µM, the MIC (Staphylococcus aureus [20]) was 1690 µM and the MIC (Staphylococcus aureus [21]) was 1690 µM. The FC (Staphylococcus aureus [22]) was 1, the Activity (Staphylococcus aureus [23]) was “inactive” and the Activity (Staphylococcus aureus [24]) was “inactive”. For the same molecule, the Activity (Staphylococcus aureus [25]) was “Active”, the Activity (Staphylococcus aureus [26]) was “Active” and the Activity (Staphylococcus aureus [27]) was “inactive”.

From ChEMBL document CHEMBL3600353, “In Vitro Activity of Epigallocatechin Gallate and Quercetin Alone and in Combination versus Clinical Isolates of Methicillin-Resistant Staphylococcus aureus” (2015)
